Reference: patent US11014956B2, “Compositions and methods for altering second messenger signaling” (Memorial Sloan Kettering Cancer Center, priority 2013, dated 2021)
Changes are numbered by the printed parent chain. Names may count otherwise. “Also recorded” adds a separate entry of the source.

B1: S165A, N172A, K372A triple mutant: cGAS dsDNA-binding triple mutant (protein)
chain: PDKLKKVLDKLRLKRKDIAEAAETVAKVVERLLRRMQKRESEFKGVEQLNTGSYYEHVKISAPNEFDVMFKLEVPRIELQEYYETGAFYLVKFKRIPRGNPLSHFLEGEVLSATKMLSKFRKIIKEEVKEIKDIDVSVEKEKPGSPAVTLLIRNPEEISVDIILALESKGSWPISTKEGLPIQGWLGTKVRTNLRREPFYLVPKNAKDGNSFQGETWRLSFSHTEAYILNNHGIEKTCCESSGAKCCRKECLKLMKYLLEQLKKEFQELDAFCSYHVKTAIFHMWTQDPQDSQWDPRNLSSCFDKLLAFFLECLRTEKLDHYFIPKFNLFSQELIDRKSKEFLSKKIEYERNNGFPIFDKL
B2: R158A, R161A, K395A triple mutant: cGAS dsDNA-binding triple mutant (protein)
chain: B1 chain with R12A, R15A, A19S, A26N, A226K, K249A
B3: N196A, Y200A, K372A triple mutant: cGAS dsDNA-binding triple mutant (protein)
chain: B1 chain with A19S, A26N, N50A, Y54A
B4: S165A, N172A, Y200A triple mutant: cGAS dsDNA-binding triple mutant (protein)
chain: B1 chain with Y54A, A226K

Assays:
[1] = target: T1, cGAS (Mus musculus, UniProt Q8C6L5); assay: cGAS activity assay, c[G(2′,5′)pA(3′,5′)p] formation by thin-layer chromatography; format: biochemical; conditions: for cyclic dinucleotide formation with the nucleotide as cGAS substrate in place of GTP or ATP (in words): cGAS plus dsDNA
T1 construct: Purified recombinant full length (fl, amino acids 1-507) and truncated (tr, amino acids 147-507) murine cGAS; His6-SUMO (N, cleaved yes); made in house; host or cells: E. coli BL21 (DE3) RIL
Source text: (§1) To validate the structural results, we established an activity assay using thin-layer chromatography (FIG. 11) and monitored cyclic dinucleotide c[G(2′,5′)pA(3′,5′)p] formation from ATP and GTP using purified recombinant full-length and truncated cGAS proteins. cGAS required the presence of dsDNA and Mg^2+ or Mn^2+ for activity (FIG. 5A-B). […] The trace amount of c[G(2′,5′)pA(3′,5′)p]detected for the specific ssDNA used in this experiment was attributable to a stretch of sequence complementarity, and the substitution of G by 8-oxoguanine (8-oxoG) was sufficient to destabilize its predicted interaction and eliminate the residual cGAS activity.
(§2) Purified recombinant full length (fl, amino acids 1-507) and truncated (tr, amino acids 147-507) murine cGAS, including truncated mutant versions 1-6, were incubated in 20 μL reactions containing: 1 μM cGAS, 3.3 μM dsDNA, 5 mM MgCl2, 150 mM NaCl, 20 mM Tris-HCl, pH 7.5 at 25° C., 1 mM DTT, 10% glycerol, 1 mM each of nucleotides (typically ATP and GTP), and α^32P or γ^32P radiolabelled NTPs or dNTPs at 37° C. for 40 min. Reactions were stopped by addition of 20 μL of 50 mM EDTA. 2 μL of reaction solution was spotted onto high-performance TLC plates (HPTLC silica gel, 60 Å pores, F254, 10×10 cm, cat #1.05628.0001, EMD Millipore) and products were separated with Solvent 1 (NH4HCO3:C2H5OH:H2O [0.2 M:30%:70%], w:v:v) or 2 (NH4HCO3:C2H5OH:H2O [0.025 M:30%:70%], w:v:v) at 25° C. for 1 h. Reaction products were visualized by UV (254 nm) and phosphorimaging (Typhoon FLA 9500, GE Healthcare). Images were processed using Adobe Photoshop and Illustrator CS5. The TLC conditions used were largely based on a protocol established to separate 3′,5′ cAMP (Higashida et al, 2012).
(§3) The yield of c[G(2′,5′)pA(3′,5′)p] generated was calculated by densitometry analysis of TLC experiments, using FIJI (ImageJ 1.47i) or spectrophotemetrically (absorbance at 260 nm, E260=25.4×10^3) after purification from HPLC. For densitometry analyses, the fraction of α^32P-labelled c[G(2′,5′)pA(3′,5′)p] over total radioactivity per lane (c[G(2′,5′)pA(3′,5′)p]plus remaining α^32P-labelled ATP or GTP) was calculated.

[2] = system: IFN-β luciferase reporter; assay: IFN-β luciferase reporter assay in HEK 293 cells co-expressing cGAS and STING; format: cell-based; conditions: for cGAS function in cells (in words): alanine mutants of full-length cGAS expressed in HEK 293 cells
Source text: To assess the impact on cGAS function in cells, we generated additional alanine mutants of cGAS for expression in mammalian cells. The full-length cGAS mutants together with STING and an IFN-β luciferase reporter were transiently expressed in HEK 293 cells. […] (Arg364, Tyr 421; FIG. 2F, 4B), while single mutants of these residues only slightly impaired cGAS function (FIG. 7C). […] Similarly, conversion of the highly mobile Gly198 to sterically restricted proline abrogated cGAS activity (FIG. 13E).
3×10^4 HEK293 cells per 96-well were reverse-transfected in triplicates with a mixture of pGL3-IFNbeta-Gluc (50 ng), pLenti-EF1-Fluc (25 ng), pLenti-EF1-mSTING (25 ng) and cGAS-expression plasmid (25 ng, pMAX-cGAS WT or mutants) or Control plasmid pMAX-GFP (Amaxa) using Trans-IT LT1 (MirusBio, Madison, Wis.). After 36 h cells were lysed in passive lysis buffer. Firefly and gaussia Luciferase activities were determined on an EnVision reader (Perkin Elmer, Waltham, Mass.) using the respective substrates D-luciferin and coelenterazine (PJK GmbH, Kleinblittersdorf, Germany). IFNbeta-Gluc values were normalized to constitutive firefly luciferase values and fold induction was calculated in relation to control-plasmid pMAX-GFP.

[3] = system: cGAS; assay: cGAS activity assay, c[G(2′,5′)pA(3′,5′)p] formation by thin-layer chromatography; format: biochemical, mouse; conditions: for c[G(2′,5′)pA(3′,5′)p] formation by cGAS protein in vitro (in words): purified recombinant cGAS incubated with DNA
Source text: as §1, §2, §3

[4] = system: THP 1 cells; conditions: concentrations as low as; cited from earlier work
[5] = system: Raw264.7 cells; conditions: concentrations as low as; cited from earlier work

T1 sequence (Q8C6L5 whole entry, the tested form may be a part): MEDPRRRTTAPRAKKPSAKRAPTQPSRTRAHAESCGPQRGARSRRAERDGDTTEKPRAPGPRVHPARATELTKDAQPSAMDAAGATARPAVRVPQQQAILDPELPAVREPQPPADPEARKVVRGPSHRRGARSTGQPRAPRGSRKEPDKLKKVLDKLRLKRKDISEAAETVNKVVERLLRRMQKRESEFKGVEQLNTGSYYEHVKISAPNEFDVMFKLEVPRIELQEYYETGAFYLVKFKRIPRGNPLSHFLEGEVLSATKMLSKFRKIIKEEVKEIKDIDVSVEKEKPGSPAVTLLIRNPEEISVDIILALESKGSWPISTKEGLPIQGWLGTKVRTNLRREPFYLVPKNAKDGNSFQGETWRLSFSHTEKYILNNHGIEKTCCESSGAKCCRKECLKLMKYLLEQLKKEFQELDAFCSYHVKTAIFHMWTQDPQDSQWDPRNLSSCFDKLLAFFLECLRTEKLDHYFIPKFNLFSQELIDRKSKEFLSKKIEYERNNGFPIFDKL

Molecule | cGAS function in cells (in words) [2] | c[G(2′,5′)pA(3′,5′)p] formation by cGAS protein in vitro (in words) [3] | other results
Nc1nc2c(ncn2[C@H]2C[C@H](O)[C@@H](COP(=O)(O)OP(=O)(O)OP(=O)(O)O)O2)c(=O)[nH]1 [2′-dGTP, reference compound] | – | – | cyclic dinucleotide formation with the nucleotide as cGAS substrate in place of GTP or ATP (in words) [1]: not at all; also recorded: unable to form a cyclic dinucleotide
Nc1ncnc2c1ncn2[C@H]1C[C@H](O)[C@@H](COP(=O)(O)OP(=O)(O)OP(=O)(O)O)O1 [2′-dATP, reference compound] | – | – | cyclic dinucleotide formation with the nucleotide as cGAS substrate in place of GTP or ATP (in words) [1]: forms; also recorded: markedly reduced formation of cyclic GA-dinucleotides
Asp307: cGAS single mutant, catalytic residue Asp307 replaced by Ala | non-functional; also recorded: functionally dead | – | –
S199A: cGAS single mutant S199A | did not severely impair cGAS function | retained substantial activity | –
cGAS: mouse cyclic GMP-AMP synthase, wild type, full length (amino acids 1-507), recombinant or expressed in cells | – | – | estimated observed rate constant ([3]; multiple turnover conditions): 0.19 min⁻¹; turnovers per enzyme molecule ([3]; multiple turnover conditions, 40 min): over 750; original ATP and GTP converted to c[G(2′,5′)pA(3′,5′)p] ([3]; multiple turnover conditions, within 40 min, n=5): Over 78%; enhanced luciferase activity compared to a control plasmid ([2]; HEK 293 cells, STING and IFN-β luciferase reporter transiently expressed): ~15 fold
Nc1nc2c(ncn2[C@@H]2O[C@@H]3COP(=O)(O)O[C@H]4[C@@H](O)[C@H](n5cnc6c(N)ncnc65)O[C@@H]4COP(=O)(O)O[C@H]3[C@H]2O)c(=O)[nH]1 [c[G(3′,5′)pA(3′,5′)p]] | – | – | concentration at which production of interferon is stimulated [4]: 10 nM; concentration at which production of interferon is stimulated [5]: 10 nM
Asp213: cGAS single mutant, catalytic residue Asp213 replaced by Ala | non-functional; also recorded: functionally dead | – | –
cGAS (tr): truncated murine cGAS, amino acids 147-507 | – | exhibits activity, albeit less than cGAS (fl) | –
G198A: cGAS single mutant G198A | did not severely impair cGAS function | – | –
Nc1ncnc2c1ncn2[C@@H]1O[C@H](COP(=O)(O)OP(=O)(O)O)[C@@H](O)[C@H]1O [ADP, reference compound] | – | – | cyclic dinucleotide formation with the nucleotide as cGAS substrate in place of GTP or ATP (in words) [1]: reduced levels of c[G(2′,5′)pA(3′,5′)p]
Nc1ncnc2c1ncn2[C@@H]1O[C@H](COP(=O)(O)O)[C@@H](O)[C@H]1O [AMP, reference compound] | – | – | cyclic dinucleotide formation with the nucleotide as cGAS substrate in place of GTP or ATP (in words) [1]: no product or intermediate formation
Glu211: cGAS single mutant, catalytic residue Glu211 replaced by Ala | non-functional; also recorded: functionally dead | functionally dead | –
Nc1nc2c(ncn2[C@@H]2O[C@H](COP(=O)(O)OP(=O)(O)O)[C@@H](O)[C@H]2O)c(=O)[nH]1 [GDP, reference compound] | – | – | cyclic dinucleotide formation with the nucleotide as cGAS substrate in place of GTP or ATP (in words) [1]: reduced amount of the cylic-dinucleotide
Arg161: cGAS single alanine mutant of DNA binding residue Arg161 | not sufficient to impair cGAS activity | – | –
Y421A, R364A: cGAS dual mutant of the base stacking residues Arg364 and Tyr421 | loss in the majority of activity | – | cGAS function in cells (in words) ([2]; Tyr 421): abrogation of cGAS activity
Nc1ncnc2c1ncn2[C@@H]1O[C@H](COP(=O)(O)OP(=O)(O)OP(=O)(O)O)C[C@H]1O [3′-dATP, reference compound] | – | – | cyclic dinucleotide formation with the nucleotide as cGAS substrate in place of GTP or ATP (in words) [1]: markedly reduced formation of cyclic GA-dinucleotides
16 bp dsDNA: 16 bp dsDNA used for crystallography (SEQ ID NO: 47 and 48) (chain 1 AAATTGCCGAAGACGAA; chain 2 TTTCGTCTTCGGCAATT; DNA, backbone not given here) [reference compound] | – | – | stimulation of cGAS cyclic dinucleotide formation by the nucleic acid (in words) ([1]; ATP and GTP as substrates): elicited some activity
B1 | complete loss in activity and ability to stimulate interferon production | complete loss in activity | –
B2 | complete loss in activity and ability to stimulate interferon production | complete loss in activity | –
B3 | complete loss in activity and ability to stimulate interferon production | complete loss in activity | –
B4 | partial loss in activity | partial loss in activity | –
